The text below walks through data of PMC9479156 (Frontiers in Pharmacology, 2022).

What all share (type): cell-based, Plasmodium falciparum
For test [1], the system named is asexual blood stage P. falciparum K1 (multidrug resistant). Briefly: SYBR Green I proliferation assay, asexual blood stage Pf K1. The method, then: (§1) In vitro cultivation of asexual and gametocyte P. falciparum parasites: P. falciparum asexual blood stage parasites were cultivated in human erythrocytes in RPMI-1640 media supplemented with AlbuMax II under sterile conditions and in a hypoxic environment (90% N2, 5% CO2, and 5% O2) at 37°C as described previously ([Coertzen et al., 2018]; [Wong et al., 2019]). Gametocytes were produced from asexual blood stage parasites in a stage-specific manner through induction of cellular stress as described previously ([Reader et al., 2015]; [Coertzen et al., 2018]; [Wong et al., 2019]; [Reader et al., 2022]).
(§2) DHA, artesunate, artemether, chloroquine (CQ), and methylene blue (MB) were used as reference drugs. […] Dose-responses were determined using a 2-fold serial drug dilution on in vitro 95% ring-stage intraerythrocytic Pf parasites (1% parasitemia, 1% hematocrit) at 37°C under 90% N2, 5% CO2, and 5% O2 atmospheric conditions, detecting SYBR green I fluorescence as a marker for parasite proliferation following a 96 h drug treatment ([Smilkstein et al., 2004]; [Verlinden et al., 2011]). Activity against the Pf drug-sensitive NF54 strain and the multi drug-resistant K1 (resistant to CQ, quinine, pyrimethamine, and cycloguanil), and W2 (resistant to CQ, quinine, pyrimethamine, and cycloguanil) strains was evaluated. […]

The test system of test [2] is late stage IV-V P. falciparum NF54 gametocytes. The test can be described thus: Luciferase reporter gametocytocidal assay, late stage gametocytes. The following applies: for IC50: Plasmodium falciparum; for Fold change preference ratio LG to EG: late vs immature stage gametocytes. How it is done:
as §1
Untreated and 5 μM MB-treated immature and late-stage gametocytes were included as positive and negative controls. MB and artemisone were included as internal reference standards. In all cases, an interference assay to eliminate false positives from possible compound interference with the luciferase readout was run in parallel. Unless otherwise indicated, data are from technical triplicates, performed for three biological replicates. Complete dose-response curves are given in the (Supplementary Figures S2A,B).
Stage-specific activities of celastrol against immature (stage II-III) and late stage (stage IV-V) gametocytes were determined with the luc reporter line as described previously ([Coertzen et al., 2018]; [Wong et al., 2019]). Also included in Table 2 for direct comparison of activities with celastrol are gametocytocidal data for MB, artemisone and the artemisinin derivatives recorded previously ([Coertzen et al., 2018]; [Wong et al., 2019]).
(In a reporter assay the amount or activity of a reporter protein is the signal.)

Test [3] relates to asexual blood stage P. falciparum W2 (multidrug resistant). Briefly: SYBR Green I proliferation assay, asexual blood stage Pf W2. The method, then: as §1, §2

Like-named read-outs stand apart in the source and are kept apart here.

As a reminder, the IC50 is the concentration needed to halve the response being measured.

For the compound `CC1=C(O)C(=O)C=C2C1=CC=C1[C@@]2(C)CC[C@@]2(C)[C@@H]3C[C@](C)(C(=O)O)CC[C@]3(C)CC[C@]12C` [Celastrol, celastrol], the IC50 in test [1] (Plasmodium falciparum, K1, 96 h, read-out: IC50 K1) was 700 ± 100 nM; in test [2] (NF54, abstract, read-out: IC50 late stage Pf NF54 gametocytes) it was 280 nM; in test [2] (NF54 gametocytes, luciferase, 72 h, mean ± SEM, this study, read-out: Late stage IV-V (luc 72 h) IC50) it was 282 ± 96.2 nM; in test [3] (Plasmodium falciparum, W2, 96 h, read-out: IC50 W2), 500 ± 100 nM. Besides, the “RI (resistance index) = IC50 K1/IC50 NF54” value in test [1] (this study) was determined as 0.85. Further, the “Fold change preference ratio LG to EG” value in test [2] (this study) is 4.1; in test [2] (this study, listed as celastrol) it was “approximately 4”. The “RI = IC50 W2/IC50 NF54” value in test [3] (this study) was 0.61.
